Results on 28 compounds are retold here after US20240317721A1, “PYRAZOLYL DERIVATIVES AS INHIBITORS OF THE KRAS MUTANT PROTEIN” (NOVARTIS AG, priority 2021, published 2024).

SMILES strings stand for the structures. Where only a bound is given, the exact number is not on record here.

In general, IC50 refers to the concentration that gives 50% inhibition.

For the assay, the target named is KRasG12C (M1-K169, biotinylated on the N-terminus) (Homo sapiens (Human), UniProt P01116, G12C). The assay can be described thus: Covalent competition assay: scintillation proximity assay (SPA) quantifying covalent modification of KRASG12C. The format is binding. As to conditions: competition with radiolabeled covalent probe (Compound B/Compound A), 2 hours incubation, 10 nM KRasG12C. Put shortly: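 Test compounds compete with a radiolabeled covalent probe for modification of N-terminally biotinylated KRasG12C(M1-K169):GDP, final 10 nM protein, 25 nM radio-ligand, 475 nM unlabelled ligand, 2 h with agitation in 20 mM Tris-HCl pH 7.5, 150 mM NaCl, 0.1 mM MgCl2, 0.01% Tween-20.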
For orientation: SPA uses beads or plates that emit light when radiolabelled molecules are held near them.
Take `C=CC(=O)N1CC2(CC(n3nc(N4CCCC4(C)C)c(-c4c(Cl)c(C)cc5[nH]ncc45)c3C)C2)C1` (single isomer, unassigned) [Example 88b, 1-(6-(4-(5-chloro-6-methyl-1H-indazol-4-yl)-3-(2,2-dimethylpyrrolidin-1-yl)-5-methyl-1H-pyrazol-1-yl)-2-azaspiro[3.3]heptan-2-yl)prop-2-en-1-one]: the IC50 amounted to 467 nM.
In the case of `C=CC(=O)N1CC2(CC(n3nc(N4CCN(C(C)=O)CC4)c(-c4c(Cl)ccc5[nH]ncc45)c3C)C2)C1C` (single isomer, unassigned) [Example 198a, 1-(6-(3-(4-acetylpiperazin-1-yl)-4-(5-chloro-1H-indazol-4-yl)-5-methyl-1H-pyrazol-1-yl)-1-methyl-2-azaspiro[3.3]heptan-2-yl)prop-2-en-1-one] it was above 50000 nM; in that of `C=CC(=O)N1CC2(CC(n3nc(N4CCC(CN5CC6COCC6C5)CC4(C)C)c(-c4c(Cl)c(Cl)cc5[nH]ncc45)c3C)C2)C1` (single isomer, unassigned) [Example 227a, 1-(6-(4-(5,6-dichloro-1H-indazol-4-yl)-3-(2,2-dimethyl-4-((tetrahydro-1H-furo[3,4-c]pyrrol-5(3H)-yl)methyl)piperidin-1-yl)-5-methyl-1H-pyrazol-1-yl)-2-azaspiro[3.3]heptan-2-yl)prop-2-en-1-one], 4900 nM; in that of `C=CC(=O)N1CC2(CC(n3nc(N4CCN(C5(C)COC5)CC45CCC5)c(-c4c(Cl)c(C)cc5[nH]ncc45)c3C)C2)C1` (single isomer, unassigned) [Example 191b, 1-(6-(4-(5-Chloro-6-methyl-1H-indazol-4-yl)-5-methyl-3-(8-(3-methyloxetan-3-yl)-5,8-diazaspiro[3.5]nonan-5-yl)-1H-pyrazol-1-yl)-2-azaspiro[3.3]heptan-2-yl)prop-2-en-1-one], 14 nM.
As for `C=CC(=O)N1CC2(CC(n3nc(N4CCN(CC5COCCOC5)CC45CCC5)c(-c4c(Cl)c(C)cc5[nH]ncc45)c3C)C2)C1` (single isomer, unassigned) [Example 185b, 1-(6-(3-(8-((1,4-dioxepan-6-yl)methyl)-5,8-diazaspiro[3.5]nonan-5-yl)-4-(5-chloro-6-methyl-1H-indazol-4-yl)-5-methyl-1H-pyrazol-1-yl)-2-azaspiro[3.3]heptan-2-yl)prop-2-en-1-one], the IC50 is 15 nM.
Consider `C=CC(=O)N1CC2(CC(n3nc(N4CCC5(CN(C6COC6)C5)CC4(C)C)c(-c4c(Cl)c(C)cc5[nH]ncc45)c3C)C2)C1` (single isomer, unassigned) [Example 91a, 1-(6-(4-(5-chloro-6-methyl-1H-indazol-4-yl)-3-(6,6-dimethyl-2-(oxetan-3-yl)-2,7-diazaspiro[3.5]nonan-7-yl)-5-methyl-1H-pyrazol-1-yl)-2-azaspiro[3.3]heptan-2-yl)prop-2-en-1-one], for which the IC50 turned out to be 2900 nM.
On to `C=CC(=O)N1CC2(CC(n3nc(N4CCN(C[C@@H]5COCCO5)C[C@]4(C)CC)c(-c4c(Cl)c(C)cc5[nH]ncc45)c3C)C2)C1` (single isomer, unassigned) [Example 173a], for which the IC50 is 2900 nM.
In the case of `C=CC(=O)N1CC2(CC(n3nc(N4C[C@H]5C[C@@H]4CN5C(C)=O)c(-c4c(Cl)c(C)cc5[nH]ncc45)c3C)C2)C1` [Example 5, 1-(6-(3-((1R,4R)-5-acetyl-2,5-diazabicyclo[2.2.1]heptan-2-yl)-4-(5-chloro-6-methyl-1H-indazol-4-yl)-5-methyl-1H-pyrazol-1-yl)-2-azaspiro[3.3]heptan-2-yl)prop-2-en-1-one] it was 2200 nM.
`C=CC(=O)N1CC2(CC(n3nc(N4[C@@H](C)CN(C(C)=O)C[C@@H]4C)c(-c4c(Cl)c(C)cc5[nH]ncc45)c3C)C2)C1` (single isomer, unassigned) [Example 56b]: the IC50 came out at 334 nM.
For `C=CC(=O)N1CC2(CC(n3nc(N4CC[C@@H](CN5CCP(C)(=O)CC5)CC4(C)C)c(-c4c(Cl)c(Cl)cc5[nH]ncc45)c3C)C2)C1` (single isomer, unassigned) [Example 269a], the IC50 came out at 4300 nM.
Regarding `C=CC(=O)N1CC2(CC(n3nc(N4CCN(CC(F)(F)F)CC4(C)C)c(-c4c(Cl)c(C)cc5[nH]ncc45)c3C)C2)C1` (single isomer, unassigned) [Example 68b, 1-(6-(4-(5-chloro-6-methyl-1H-indazol-4-yl)-3-(2,2-dimethyl-4-(2,2,2-trifluoroethyl)piperazin-1-yl)-5-methyl-1H-pyrazol-1-yl)-2-azaspiro[3.3]heptan-2-yl)prop-2-en-1-one], the half-inhibitory concentration (IC50) turned out to be 239 nM.
In the case of `C=CC(=O)N1CC2(CC(n3nc(N4CC[C@@H](CN5CCOCC5)CC4(C)C)c(-c4c(Cl)c(Cl)cc5[nH]ncc45)c3C)C2)C1` (single isomer, unassigned) [Example 213a], the IC50 came out at 3500 nM.
Consider `C=CC(=O)N1CC2(CC(n3nc(N4CCN(CCOC)CC4(C)C)c(-c4c(Cl)c(C)cc5[nH]ncc45)c3C)C2)C1` (single isomer, unassigned) [Example 170b, 1-(6-(4-(5-chloro-6-methyl-1H-indazol-4-yl)-3-(4-(2-methoxyethyl)-2,2-dimethylpiperazin-1-yl)-5-methyl-1H-pyrazol-1-yl)-2-azaspiro[3.3]heptan-2-yl)prop-2-en-1-one], for which the IC50 was determined as 60 nM.
Regarding `C=CC(=O)N1CC2(CC(n3nc(N4CC[C@@H](CN5CCN(C6COC6)CC5)CC4(C)C)c(-c4c(Cl)ccc5[nH]ncc45)c3C)C2)C1` (single isomer, unassigned) [Example 255b], the IC50 is 84 nM.
On to `C=CC(=O)N1CC2(CC(n3nc(N4CCN(C5CCOCC5)C[C@]4(C)COC)c(-c4c(Cl)c(Cl)cc5[nH]ncc45)c3C)C2)C1` (single isomer, unassigned) [Example 150b], for which the half-inhibitory concentration (IC50) is below 5 nM.
As for `C=CC(=O)N1CC2(CC(n3nc(N4CCC(N5CCOCC5)CC4(C)C)c(-c4c(Cl)c(C)cc5[nH]ncc45)c3C)C2)C1` (single isomer, unassigned) [Example 35b, 1-(6-(4-(5-chloro-6-methyl-1H-indazol-4-yl)-3-(2,2-dimethyl-4-morpholinopiperidin-1-yl)-5-methyl-1H-pyrazol-1-yl)-2-azaspiro[3.3]heptan-2-yl)prop-2-en-1-one], the figure is 1500 nM.
On to `C=CC(=O)N1CC2(CC(n3nc(N4CC[C@@H](CN5CC6CCC(C5)O6)CC4(C)C)c(-c4c(Cl)c(Cl)cc5[nH]ncc45)c3C)C2)C1` (single isomer, unassigned) [Example 314a], for which the IC50 came to 2100 nM.
With `C=CC(=O)N1CC2(CC(n3nc(N4CCN(C5COC5)CC4(CC)CC)c(-c4c(Cl)c(C)cc5[nH]ncc45)c3C)C2)C1` (single isomer, unassigned) [Example 152a, 1-(6-(4-(5-chloro-6-methyl-1H-indazol-4-yl)-3-(2,2-diethyl-4-(oxetan-3-yl)piperazin-1-yl)-5-methyl-1H-pyrazol-1-yl)-2-azaspiro[3.3]heptan-2-yl)prop-2-en-1-one], the IC50 is above 5000 nM.
In the case of `C=CC(=O)N1CC2(CC(n3nc(N4CCC(N(C)C(=O)COC)CC4(C)C)c(-c4c(Cl)c(C)cc5[nH]ncc45)c3C)C2)C1` (single isomer, unassigned) [Example 97b, N-(1-(1-(2-acryloyl-2-azaspiro[3.3]heptan-6-yl)-4-(5-chloro-6-methyl-1H-indazol-4-yl)-5-methyl-1H-pyrazol-3-yl)-2,2-dimethylpiperidin-4-yl)-2-methoxy-N-methylacetamide] it was 1700 nM; in that of `C=CC(=O)N1CC2(CC(n3nc(N4CCC(CN5C[C@@H]6OCCO[C@@H]6C5)CC4(C)C)c(-c4c(Cl)c(Cl)cc5[nH]ncc45)c3C)C2)C1` (single isomer, unassigned) [Example 232b], 137 nM.
`C=CC(=O)N1CC2(CC(n3nc(N4CC[C@@H](CN5CCN6CCOC[C@H]6C5)CC4(C)C)c(-c4c(Cl)c(Cl)cc5[nH]ncc45)c3C)C2)C1` (single isomer, unassigned) [Example 288a]: the IC50 was 4900 nM.
Regarding `C=CC(=O)N1CC2(CC(n3nc(N4CC[C@@H](CN5CC6(CCCN6C(C)=O)C5)CC4(C)C)c(-c4c(Cl)c(Cl)cc5[nH]ncc45)c3C)C2)C1` (single isomer, unassigned) [Example 285b], the IC50 worked out at 7 nM.
For `C=CC(=O)N1CC2(CC(n3nc(N4CCN(C[C@@H]5COCCO5)C[C@]4(C)CC)c(-c4c(Cl)c(C)cc5[nH]ncc45)c3C)C2)C1C` (single isomer, unassigned) [Example 199b], the concentration for half-maximal inhibition (IC50) turned out to be 37 nM.
For the compound `C=CC(=O)N1CC2(CC(n3nc(N4CC[C@@H](CN5CCO[C@@H](C(N)=O)C5)CC4(C)C)c(-c4c(Cl)c(Cl)cc5[nH]ncc45)c3C)C2)C1` (single isomer, unassigned) [Example 271a], the IC50 was above 5000 nM.
For `C=CC(=O)N1CC2(CC(n3nc(N4CCN(C(=O)C(F)F)CC4(C)C)c(-c4c(Cl)c(C)cc5[nH]ncc45)c3C)C2)C1` (single isomer, unassigned) [Example 128a, 1-(6-(4-(5-chloro-6-methyl-1H-indazol-4-yl)-3-(4-(2,2-difluoroacetyl)-2,2-dimethylpiperazin-1-yl)-5-methyl-1H-pyrazol-1-yl)-2-azaspiro[3.3]heptan-2-yl)prop-2-en-1-one], the IC50 was above 50000 nM.
Regarding `C=CC(=O)N1CC2(CC(n3nc(N4CC[C@@H](CN5C[C@@H]6CN(C(C)=O)C[C@@H]6C5)CC4(C)C)c(-c4c(Cl)c(Cl)cc5[nH]ncc45)c3C)C2)C1` (single isomer, unassigned) [Example 295a], the IC50 was found to be 2000 nM.
For the compound `C=CC(=O)N1CC2(CC(n3nc(N4CC[C@@H](CN5CCN6C(=O)COC[C@@H]6C5)CC4(C)C)c(-c4c(Cl)c(Cl)cc5[nH]ncc45)c3C)C2)C1` (single isomer, unassigned) [Example 275a], the IC50 was above 5000 nM.
As for `C=CC(=O)N1CC2(CC(n3nc(N4CCN(C5COC5)C[C@@]4(C)COC)c(-c4c(Cl)c(C)cc5[nH]ncc45)c3C)C2)C1` (single isomer, unassigned) [Example 148a], the figure is above 5000 nM.
